Format in all cases: functional
For experiment [1], the system named is Escherichia coli. The experiment is described as follows: In vitro inhibition of protein translation in Escherichia coli.
In experiment [2] the test system is Escherichia coli. Description: In vitro antibacterial activity was determined.
The nature of experiment [3]: Inhibition of L11BD (L11 binding domain) 58-mer methylation of A1067 at 50 uM.
The subject of the next experiment is Nucleic Acid. The experiment is described as follows: % Inhibition of rRNA methylation at 50 uM.
For experiment [4], the system named is Escherichia coli. The experiment is described as follows: Inhibitory concentration of compound against Escherichia coli in vitro protein translation.

≈ marks a conversion by molar mass, not a printed value. Some results are limits rather than exact numbers.

Take `CC[C@@H](NC(=O)[C@@H](NC(=O)c1csc(-c2ccccc2)n1)[C@@H](C)O)c1nc(C(=O)NCc2ccc3c(c2)OCO3)cs1`: in the experiment with Escherichia coli [1], the Inhibition (usually how much of the control response was suppressed) came out at 31%. This molecule also yielded an MIC95 against Escherichia coli [2] above 200 µg/mL. Moreover, the results for the inhibition (in experiment [3]; in the experiment on Nucleic Acid) were 28% and 13%, respectively.
As for `CC(C)[C@@H](NC(=O)[C@@H](NC(=O)c1csc(-c2ccccc2)n1)[C@@H](C)O)c1nc(C(=O)NCc2ccc3c(c2)OCO3)cs1`, the Inhibition in the experiment with Escherichia coli [1] amounted to 16%. In the experiment with Escherichia coli [2], this molecule gave an MIC95 above 200 µg/mL. Besides, the values for the inhibition (in experiment [3]; in the experiment with Nucleic Acid) were 24% and 20%, respectively.
Regarding `C[C@H](O)[C@@H](NC(=O)[C@@H](NC(=O)c1csc(-c2ccccc2)n1)[C@@H](C)O)c1nc(C(=O)O)cs1`, the MIC95 with Escherichia coli [2] was above 200 µg/mL. For the same molecule, the inhibition (commonly the percentage by which the read-out fell short of the control) in experiment [3] stood at 35%; in the experiment on Nucleic Acid, 27%.
For `C=C(NC(=O)C(=C)NC(=O)c1csc(C2=N[C@@H]3c4csc(n4)[C@H]4NC(=O)c5csc(n5)[C@H]([C@](C)(O)[C@@H](C)O)NC(=O)[C@H]5CSC(=N5)/C(=C/C)NC(=O)[C@H]([C@@H](C)O)NC(=O)c5csc(n5)[C@]3(CC2)NC(=O)[C@H](C)NC(=O)C(=C)NC(=O)[C@H](C)NC(=O)[C@H]([C@@H](C)CC)N[C@@H]2C=Cc3c([C@H](C)O)cc(nc3[C@H]2O)C(=O)O[C@@H]4C)n1)C(N)=O` [THIOSTREPTON], the Inhibition in the experiment with Escherichia coli [1] is 98%. Moreover, the MIC95 against Escherichia coli [2] was determined as 0.015 µg/mL (≈ 0.00901 µM). Moreover, in the experiment with Escherichia coli [4], the 50% inhibitory concentration (IC50) (usually the concentration that gives 50% inhibition) turned out to be 100 nM.
For the molecule `C[C@H](O)[C@H](NC(=O)c1csc(-c2ccccc2)n1)c1nc(C(=O)N2CCN(CCOCCO)CC2)cs1`, the MIC95 in the experiment with Escherichia coli [2] was above 200 µg/mL. Also, in experiment [3], the inhibition is 59%.
In the case of `CC(C)[C@@H](NC(=O)[C@@H](NC(=O)c1csc(-c2ccccc2)n1)[C@@H](C)O)c1nc(C(=O)NCCCO)cs1`, the Inhibition in the experiment on Escherichia coli [1] is 48%. This molecule displayed an MIC95 against Escherichia coli [2] above 200 µg/mL. In addition, the inhibition (in experiment [3]; in the experiment with Nucleic Acid) was 37% in each case.

Values taken from ChEMBL document CHEMBL1145726, “Structure-based design of agents targeting the bacterial ribosome” (Bioorg Med Chem Lett, 2003).
